The text below walks through data of patent US20250051395A1, “PEPTIDES AND METHODS FOR USE IN TREATING PAIN” (TAFALGIE THERAPEUTICS, priority 2021, published 2025).

Assay [1] has as its system carrageenan model (inflammatory pain), C57Bl6 mice. Description: Carrageenan injection inflammatory pain model, Von Frey paw withdrawal threshold. Conditions: celecoxib subcutaneous, 20 mg/kg. The format is in vivo.
Experimental: Inventors injected 20 μl of 1% λ-carrageenan (Sigma-Aldrich, 22049-5G-F) in 1×PBS into the plantar surface of the left hind paw of the mouse with a Hamilton syringe. The carrageenan injection was used as an inflammatory pain model.
(§1) The Von Frey's uses Von Frey (VF) hair or fibers, which are small pieces of nylon rod, approximately 50 mm in length to test a rodent's sensitivity to a mechanical stimulus. In this test, the animal stands on an elevated mesh platform, and the Von Frey hairs are inserted through the mesh to poke the animal's hindpaw. Normal reactions for the animal include withdrawing or licking or shaking the paw. The “up-down” Von Frey method is used to determine the mechanical force required to elicit a paw withdrawal response in 50% of animals. Here, mice were placed in plastic chambers on a wire mesh grid and stimulated with von Frey filaments (Bioseb) by the “up-down” method (45) starting with a 1 g filament, and using 0.04 and 4 g filaments as the cutoffs.
The experiments were conducted on eight-week-old male WT C57Bl6. Three groups of 8 mice were used.
As previously described, measurement with Von Frey filaments by the up/down method for determining the baseline was done. Then, an intraplantar injection of 20 μl of carrageenan (1%) was performed into a hind paw. […] Celecoxib is a well-known drug used as positive control.
The subject of assay [2] is paw incision model (postoperative pain), C57Bl6 mice. The assay is described as follows: Paw incision (Brennan) postoperative pain model, Von Frey paw withdrawal threshold, curative treatment. Conditions: morphine oral, 1 mg/kg, D1 after paw incision. The class given is in vivo.
Experimental: Mice were anesthetized with ketamine (100 mg/kg IP) and xylazine (10 mg/kg IP) and a longitudinal incision was made through the skin and fascia of the right hind paw. Forceps were used to elevate the flexor digitorum brevis muscle longitudinally and an incision was made through the muscle with a scalpel, to cut it into two halves. The wound was closed with sutures, and the animals were allowed to recover and returned to their cages. The paw incision was used as postoperative pain model.
as §1
The experiments were conducted on eight-week-old male WT C57Bl6. Three groups of 8 mice were used. […]
Assay [3] relates to Spared Nerve Injury (SNI) model, C57Bl6 mice. The assay is described as follows: Spared Nerve Injury (SNI) model of neuropathic pain, Von Frey up-down paw withdrawal threshold. Conditions: for antalgic effect when administered orally: per os, 7 days after surgery, vs vehicle (FIG. 5). The format is in vivo.
Experimental: Mice were anesthetized with ketamine (100 mg/kg IP) and xylazine (10 mg/kg IP) and the left sciatic nerve was exposed under aseptic conditions. The distal trifurcation of the sciatic nerve was identified and the tibial and common peroneal branches were ligated with polypropylene nonabsorbable 6-0 sutures (Ethicon); 1 mm was cut out, leaving the sural branch intact. The wound was closed with sutures, and the animals were allowed to recover and returned to their cages.
as §1
The experiments were conducted on eight-week-old male WT C57Bl6 mice. Three groups of 8 mice were used. Peptide of SEQ ID NO: 1 is resuspended in 0.9% NaCl at [0.6 mg/mL]. The peptide was diluted and used at a concentration of 0.3 mg/kg in this study.
After having measured the base threshold of mice with Von Frey (VF) filaments by the up/down method, the SNI model is set into place. The mice are anesthetized, ligature of the tibial nerve and of the fibular nerve is put into practice and these two nerves are then severed. The sural nerve left intact develops neuropathy quite rapidly. The occurrence of neuropathy is ascertained after 3 days post-surgery. A decrease in the response threshold to Von Frey filaments of the ipsilateral paw is thereby observed.
7 days after surgery, the response threshold is again measured. 100 μl/10 g of each of the peptide solutions, of vehicle and pregabalin solution are then blind-injected subcutaneously for the experimenter.
The same protocol was used as described in 1.1 except that the administration of the peptide, vehicle and pregabalin was done 14 days after surgery using per os administration for the peptide and vehicle.
For per os administration, the peptide of SEQ ID NO: 1 was diluted at a concentration of 30 μg/mL in a solution of 1% w/v Hydroxypropylmethylcellulose (Sigma-aldrich #423238, batch MKCD3665), 0.5% v/v Tween 80 (Euromedex #2002-A, batch 100412/16S407), referred then after as HPMC solution (vehicle).
Vehicle and peptide solution were orally administered using two gavage needles. […]
The subject of assay [4] is injury-induced mechanical hypersensitivity in mice. Conditions: cited from earlier work.
Setting [5] is: pregabalin 5 mg/kg by gavage, day 14 post-SNI.

In the case of `Cc1ccc(-c2cc(C(F)(F)F)nn2-c2ccc(S(N)(=O)=O)cc2)cc1` [celecoxib], in assay [1], the “time of maximum antalgic effect” value turned out to be 2 h.

`CN1CC[C@]23c4c5ccc(O)c4O[C@H]2[C@@H](O)C=C[C@H]3[C@H]1C5` [morphine]: in assay [2], the response threshold entry is recorded as “increase in the response threshold”.

With `CC(C)C[C@H](CN)CC(=O)O` [pregabalin, reference compound], in assay [3] (setting [5]), the “effect on mechanical threshold at 4 h post-administration” value was “completely abolished” and the “time of maximum reversal effect on mechanical threshold” value is 2 h.

As to “TAFA-4 full length protein: human TAFA-4 mature protein of 105 amino acid residues, secreted neurokine of the prior art”, the figures for the “antalgic effect when administered orally” value in assay [3] and in assay [3] (listed as TAFA4) were “did not show significant antalgic effect” and “No statistical differences”, respectively. For the same molecule, in assay [4] (intrathecal and subcutaneous administration, male and female mice), the “mechanical hypersensitivity (inflammatory, post-operative, nerve injury-induced)” value is “reverses inflammatory, post-operative and nerve injury-induced mechanical hypersensitivity”. Also, the “prolonged nerve injury-induced mechanical hypersensitivity of TAFA-4 gene deleted mice” value in assay [4] (intrathecal injection, TAFA-4 gene deleted mice) was “reversed”.
